Experimental data taken from patent US11753409B2, “Crystalline salts of a B-RAF kinase inhibitor” (Xynomic Pharmaceuticals, Inc., priority 2017, dated 2023).
Entries after “also recorded” stand apart in the source; their conditions may differ. Read-outs that look alike come from different tables or passages of the source.

Tests used:
[1] = Equilibrium solubility in various aqueous media (solubility after 2 h); type: physicochemical; settings: for solubility at 2 h: thermodynamic from solid
Procedure: Saturated solutions are prepared in well plates by adding an appropriate volume of selected aqueous media (typically in the range of 0.25-1.5 mL) into each well which contains a known quantity of solid drug substance (typically in the range 0.5-5.0 mg). The wells are shaken or stirred for a predefined time period (typically in a range of 2-24 h) and then filtered using appropriate filter membranes (typically PTFE-filters with 0.45 μm pore size). Filter absorption is avoided by discarding the first few drops of filtrate. The amount of dissolved drug substance is determined by UV spectroscopy. In addition, the pH of the aqueous saturated solution is measured using a glass-electrode pH meter.
The equilibrium solubility of N-(3-(5-((1-Ethylpiperidin-4-yl)(methyl)amino)-3-(pyrimidin-5-yl)-1H-pyrrolo[3,2-b]pyridin-1-yl)-2,4-difluorophenyl)propane-1-sulfonamide monohydrochloride salt in various media was determined.
The solubility of N-(3-(5-((1-Ethylpiperidin-4-yl)(methyl)amino)-3-(pyrimidin-5-yl)-1H-pyrrolo[3,2-b]pyridin-1-yl)-2,4-difluorophenyl)propane-1-sulfonamide monosuccinate salt in various media was determined.

[2] = Intrinsic dissolution rate, rotating disc method; type: physicochemical
Procedure: The intrinsic dissolution rate of 3-(5-((1-ethylpiperidin-4-yl)(methyl)amino)-3-(pyrimidin-5-yl)-1H-pyrrolo[3,2-b]pyridin-1-yl)-2,4-difluorophenyl)propane-1-sulfonamide salts was determined in aqueous media covering a range of pH 1.1-7.4 using the rotating disc method which maintains a constant surface area.
The drug substance (5 mg) was compressed at 356.1 Newtons for 60 s to form a disk. These disks were mounted to sample holders which fit into a miniaturized dissolution testing apparatus. The dissolution media were stirred at 200 rpm at a temperature of 37° C. Samples were automatically withdrawn every second minute from the dissolution vessel and assayed by UV spectrophotometry.
The intrinsic dissolution rate of N-(3-(5-((1-ethylpiperidin-4-yl)(methyl)amino)-3-(pyrimidin-5-yl)-TH-pyrrolo[3,2-b]pyridin-1-yl)-2,4-difluorophenyl)propane-1-sulfonamide monohydrochloride salt in various media was measured in media at various pH values.
The intrinsic dissolution rate of N-(3-(5-((1-ethylpiperidin-4-yl)(methyl)amino)-3-(pyrimidin-5-yl)-1H-pyrrolo[3,2-b]pyridin-1-yl)-2,4-difluorophenyl)propane-1-sulfonamide monosuccinate salt in various media was measured in media at various pH values.

[3] = Pharmacokinetics following oral administration to rats; type: in vivo, HsdHan:WIST Norway rats; settings: rat; for AUD: AUD range 0-24 h
Procedure: The pharmacokinetics of N-(3-(5-((1-ethylpiperidin-4-yl)(methyl)amino)-3-(pyrimidin-5-yl)-1H-pyrrolo[3,2-b]pyridin-1-yl)-2,4-difluorophenyl)propane-1-sulfonamide hydrochloride salt and N-(3-(5-((1-ethylpiperidin-4-yl)(methyl)amino)-3-(pyrimidin-5-yl)-1H-pyrrolo[3,2-b]pyridin-1-yl)-2,4-difluorophenyl)propane-1-sulfonamide […] following oral administration at 40 mg and 80 mg (dose calculated as the free base) to HsdHan:WIST Norway rats. Each salt was administered to 3 animals.

[4] = Sorption-desorption (DVS) of the salts with XRPD before and after; type: physicochemical
Procedure: Dynamic Vapor Sorption (DVS) was performed in a IGAsorp Water Sorption Analyzer from Hiden Isochema. Adsorption and desorption isotherms were performed at 25° C. with 10% RH step intervals ranging from 0% relative humidity up to 90% relative humidity.

[5] = Milling and compression stress followed by XRPD; type: physicochemical
Procedure: FIG. 20 is a plot of the XRPD of N-(3-(5-((1-ethylpiperidin-4-yl)(methyl)amino)-3-(pyrimidin-5-yl)-1H-pyrrolo[3,2-b]pyridin-1-yl)-2,4-difluorophenyl)propane-1-sulfonamide monohydrochloride salt following milling in a swing mill for 10 min. at 30 rps.
FIG. 21 is a plot of the XRPD of N-(3-(5-((1-ethylpiperidin-4-yl)(methyl)amino)-3-(pyrimidin-5-yl)-1H-pyrrolo[3,2-b]pyridin-1-yl)-2,4-difluorophenyl)propane-1-sulfonamide monohydrochloride salt following compression at 2000 N for 1 s to a tablet (diameter-5 mm).
FIG. 31 is a plot of the XRPD of N-(3-(5-((1-ethylpiperidin-4-yl)(methyl)amino)-3-(pyrimidin-5-yl)-1H-pyrrolo[3,2-b]pyridin-1-yl)-2,4-difluorophenyl)propane-1-sulfonamide monosuccinate salt following milling in a swing mill for 10 min. at 30 rps.
FIG. 32 is a plot of the XRPD of N-(3-(5-((1-ethylpiperidin-4-yl)(methyl)amino)-3-(pyrimidin-5-yl)-1H-pyrrolo[3,2-b]pyridin-1-yl)-2,4-difluorophenyl)propane-1-sulfonamide monosuccinate salt following compression at 2000 N for 1 s to a tablet (diameter-5 mm).

[6] = Intrinsic dissolution rate, rotating disc method; type: physicochemical; settings: pH of medium 1.0 (0.1M HCl), 37° C.

With `CCCS(=O)(=O)Nc1ccc(F)c(-n2cc(-c3cncnc3)c3nc(N(C)C4CCN(CC)CC4)ccc32)c1F.O=C(O)CCC(=O)O` [Monosuccinate Salt, N-(3-(5-((1-Ethylpiperidin-4-yl)(methyl)amino)-3-(pyrimidin-5-yl)-1H-pyrrolo[3,2-b]pyridin-1-yl)-2,4-difluorophenyl)propane-1-sulfonamide monosuccinate salt] the solubility at 2 h ([1]; 0.01 M HCl, simulated gastric fluid, HCl (0.01M)) was greater than 50 µg/mL, the solubility at 2 h ([1]; 0.1 M HCl, simulated gastric fluid, HCl (0.1M)) was 200 µg/mL and the “Solubility compared with the monohydrochloride salt” value ([1]; a number of media tested) was “substantially higher”. The solubility at 2 h ([1]; aqueous buffer, 0.1M Citric acid) was greater than 5000 µg/mL, the solubility at 2 h ([1]; aqueous buffer, Acetate Buffer (pH 5.0)) was greater than 5000 µg/mL and the solubility at 2 h ([1]; aqueous buffer, McIlvaine Buffer (pH 2.2)) was greater than 5000 µg/mL. The solubility at 2 h ([1]; aqueous buffer, McIlvaine Buffer (pH 3.0)) was greater than 5000 µg/mL, the solubility at 2 h ([1]; aqueous buffer, McIlvaine Buffer (pH 4.0)) was greater than 5000 µg/mL and the solubility at 2 h ([1]; aqueous buffer, McIlvaine Buffer (pH 4.5)) was greater than 5000 µg/mL. The solubility at 2 h ([1]; aqueous buffer, McIlvaine Buffer (pH 5.0)) was greater than 5000 µg/mL, the solubility at 2 h ([1]; aqueous buffer, McIlvaine Buffer (pH 6.0)) was 3700 µg/mL and the solubility at 2 h ([1]; aqueous buffer, McIlvaine Buffer (pH 6.8)) was greater than 5000 µg/mL. It also gave a solubility at 2 h ([1]; aqueous buffer, McIlvaine Buffer (pH 7.4)) of 300 µg/mL, a solubility at 2 h ([1]; aqueous buffer, Phosphate Buffer (pH 6.8)) greater than 5000 µg/mL and a solubility at 2 h ([1]; aqueous buffer, Sorensen Buffer (pH 9.0)) of 1 µg/mL. The solubility at 2 h ([1]; aqueous buffer, Sorensen Buffer (pH 11)) was 50 µg/mL, the solubility at 2 h ([1]; Simulated intestinal fluid (FaSSIF)) was 3 µg/mL and the solubility at 2 h ([1]; Simulated intestinal fluid (FeSSIF)) was 400 µg/mL. The solubility at 2 h ([1]; water) was greater than 2000 µg/mL, the “Intrinsic dissolution rate compared with the monohydrochloride salt” value [2] was “substantially higher” and the “Intrinsic Dissolution Rate” value ([2]; pH of medium 2.2, 37° C.) was 6844 μg/cm^2/min. For the same molecule, the “Intrinsic Dissolution Rate” value ([2]; pH of medium 3.0, 37° C.) was 6605 μg/cm^2/min, the “Intrinsic Dissolution Rate” value ([2]; pH of medium 4.5, 37° C.) was 2457 μg/cm^2/min and the “Intrinsic Dissolution Rate” value ([2]; pH of medium 6.8, 37° C.) was 2533 μg/cm^2/min. The “Intrinsic Dissolution Rate” value ([2]; pH of medium 7.4, 37° C.) was less than 1 μg/cm^2/min, the AUD ([3]; 40 mg/kg oral) was 30.3 µM·h and the AUD ([3]; 80 mg/kg oral) was 25.1 µM·h. For the same molecule, the Tmax ([3]; HsdHan:WIST, in vivo, 40 mg/kg oral) was 2 h, the Tmax ([3]; HsdHan:WIST, in vivo, 80 mg/kg oral) was 2.7 h and the bioavailability ([3]; HsdHan:WIST, plasma, po, 40 mg/kg dose) was 50%. For the same molecule, the Cmax ([3]; HsdHan:WIST, plasma, 40 mg/kg oral) was 6550 nM, the Cmax ([3]; HsdHan:WIST, plasma, 80 mg/kg oral) was 3520 nM and the concentration at 24 h ([3]; HsdHan:WIST, in vivo, po, 40 mg/kg, Time 24.0, 40 mg/kg oral, mean n = 3, read-out: Blood Plasma Concentrations) was 3.98 nM. It also gave a concentration at 24 h ([3]; HsdHan:WIST, in vivo, po, 80 mg/kg, Time 24.0, 80 mg/kg oral, mean n = 3, read-out: Blood Plasma Concentrations) of 5.09 nM, a concentration at 24 h ([3]; Time 0.5, 40 mg/kg oral, mean n = 3, read-out: Blood Plasma Concentrations) of 523 nM and a concentration at 24 h ([3]; Time 0.5, 80 mg/kg oral, mean n = 3, read-out: Blood Plasma Concentrations) of 274 nM. It also gave a concentration at 24 h ([3]; Time 1.0, 40 mg/kg oral, mean n = 3, read-out: Blood Plasma Concentrations) of 1320 nM, a concentration at 24 h ([3]; Time 1.0, 80 mg/kg oral, mean n = 3, read-out: Blood Plasma Concentrations) of 638 nM and a concentration at 24 h ([3]; Time 2.0, 40 mg/kg oral, mean n = 3, read-out: Blood Plasma Concentrations) of 6550 nM. For the same molecule, the concentration at 24 h ([3]; Time 2.0, 80 mg/kg oral, mean n = 3, read-out: Blood Plasma Concentrations) was 3380 nM, the concentration at 24 h ([3]; Time 4.0, 40 mg/kg oral, mean n = 3, read-out: Blood Plasma Concentrations) was 3860 nM and the concentration at 24 h ([3]; Time 4.0, 80 mg/kg oral, mean n = 3, read-out: Blood Plasma Concentrations) was 2620 nM. The concentration at 24 h ([3]; Time 6.0, 40 mg/kg oral, mean n = 3, read-out: Blood Plasma Concentrations) was 1140 nM, the concentration at 24 h ([3]; Time 6.0, 80 mg/kg oral, mean n = 3, read-out: Blood Plasma Concentrations) was 1420 nM and the “Exposure values compared with the monohydrochloride salt” value ([3]; oral) was “substantially higher”. The “Change in structure (XRPD) after sorption-desorption experiment” value ([4]; XRPD before and after, monosuccinate salt) was “no change in crystallinity or polymorphic form; also recorded: no significant change in structure occurred”, the “Reversible weight gain (isotherm sorption-desorption)” value ([4]; range from 0-80% relative humidity) was “approximately 0.25%” and the “Reversible weight gain (isotherm sorption-desorption)” value ([4]; range from 0-90% relative humidity) was “approximately 0.4%”. The “Weight gain (sorption-desorption)” value ([4]; range from 10-90% relative humidity, scale-up sample) was “approximately 1.2%”, the “Crystallinity and polymorphic form after compression (XRPD)” value ([5]; 2000 N for 1 s to a tablet (diameter 5 mm)) was “no significant decrease in crystallinity or change in polymorphic form” and the “Crystallinity and polymorphic form after milling (XRPD)” value ([5]; swing mill for 10 min. at 30 rps) was “slight decrease in crystallinity but no change in polymorphic form”. The “Intrinsic Dissolution Rate” value [6] was 201 μg/cm^2/min.
